# Tests used:
# [1] = biological target: cockroach ryanodine receptor (roach femoral muscle membranes) (Periplaneta americana, UniProt Z9HFG3YSF4); assay: Radioligand displacement ([3H]-GN analog Cpd 1) from roach femoral muscle membranes; conditions: for IC50: read-out: Displacement IC50 (nM) P. americana, displacement of [3H]-Cpd 1, roach muscle membranes, 60 min at 32° C.; for Radioligand Displacement (P. americana): known ryanodine receptor agents, result in words
# Protocol: Mid and hind legs from 6-9 week old cockroaches were excised and immediately placed in liquid nitrogen. Excised legs could be stored at −80° C. for several months, if necessary, prior to further fractionation. Typically, membrane preparations started with approximately 55 g (wet weight) of excised legs. All subsequent steps were carried out at 4° C.
# The legs were homogenized on ice using a Polytron (Brinkmann Instruments, Westbury, N.Y.) for 2 min at Setting #3. In order to remove all fragments of cuticle, the homogenate was first passed through two layers of cheesecloth and then through one layer of glass wool overlaid on two layers of cheesecloth. On occasion, the cheesecloth clogged with particulates prior to passing all material through. In such cases, fresh cheesecloth (and glass wool) was used for the remainder of the suspension. […] The supernatant was collected and centrifuged for 30 min at 30,000×gmax. The resulting pellet was resuspended in buffer A (1.5 M KCl, 0.3 M sucrose, 0.5 mM CaCl2, 20 mM Tris-HCl, pH 8.0). The membrane suspension was homogenized by hand (about 25 strokes) using a glass-teflon homogenizer. […] Subsequently, the membrane suspension was adjusted to 4 μg protein/μg by addition of buffer A and then stored in 1 ml aliquots at −80° C.
# The assay was begun by addition of 25 μl of roach muscle membranes at 2 μg/μl (prepared by thawing and addition of an equal volume of buffer B), and incubation was carried out for 60 min at 32° C. Assays were carried out in triplicate.
# The compound was allowed to pre-incubate with the membranes for 10 min at 32° C. […] Assays were carried out in triplicate.
# Following incubation, assays were quenched with ice-cold buffer B and immediately filtered on pre-wefted Unifilter 96 GF/B filter microplates using a Unifilter 96 Harvester (PerkinElmer™, Boston, Mass.). Each assay well was then washed 10 times with buffer B, and collected on the same filter microplate. The filter microplates were then placed in a vacuum oven at 32° C. for 3 h, following which 50 μl of Microscint 0 (PerkinElmer™, Boston, Mass.) was added to each well. Plates were then heat sealed and counted using a Topcount microplate scintillation counter (PerkinElmer™, Boston, Mass.).
# [2] = system: native cockroach ryanodine receptors (in embryonic neuronal cells); assay: Calcium release assay, calcium imaging in primary embryonic cockroach neuronal cells; format: cell-based, Periplaneta americana; conditions: for Calcium Release (P. americana): known ryanodine receptor agents, native receptors in embryonic neuronal cells, result in words
# Source text: Embryonic neuronal cultures of the American cockroach Periplaneta americana were established, with minor modifications, following the method of Beadle and Lees (1988) (in Cell Culture Approaches to Invertebrate Neuroscience, Academic Press, New York, pp 123-127). Briefly, 26-27-day old oothecae were collected, surface-sterilized and cut open along a line one-third of the distance below the dorsal midline. The heads were removed and placed in Schneider's Drosophila medium (Invitrogen Life Technologies™, Carlsbad, Calif.). Using fine forceps 40 brains were individually removed and placed in a small glass vial containing 700 μl of ‘5+4’ medium (‘5+4’ medium contained 5 parts Schneider's Drosophila medium plus 4 parts roach Basal Medium Eagle, with Earle's salts (BME, Sigma™, St. Louis, Mo.). Roach BME (with Earle's salts) contained 5 parts Hepes (1 M), 1 part penicillin/streptomycin and 44 parts BME (with Earle's salts). ‘5+4’ medium was made fresh and sterile filtered (0.2 μm filter) just prior to use). The brains were dissociated by sequential trituration as follows: 1) brains were passed through a standard Pasteur pipette 10 times; 2) the resulting tissue suspension was passed an additional 5 times through a Pasteur pipet with tip flamed to about half of its original diameter; 3) a final 5 passes were performed using a Pasteur pipet with tip flamed to slightly less than half of its original diameter. A repeat pipettor was used to dispense a 5 μl volume of the resulting suspension into the center of each well of a 96-well, glass-bottom plate previously coated with poly-L-lysine (0.2 mg/ml solution). Cells attached to the bottom of the wells during a 50 min incubation at 27-29° C. 150 ul of a 1:1 mixture of Leibovitz's L-15 medium and Yunker's modified Grace's medium was added, and plates were maintained in a humid incubator at 27-29° C. until use. After cells were allowed to attach wells were filled with a 1:1 mixture of Leibovitz's L-15 medium and Yunker's modified Grace's medium (Leibovitz's L-15 and Grace's medium were obtained from Invitrogen Life Technologies™, Carlsbad, Calif. and Yunker's modified Grace's medium was made with Grace's medium modified by addition of 5 mg L-methionine, 10 mg L-alanine, 182 mg MgCl26H20, 1 g Albumin Fraction V, 7 ml Fetal bovine serum, 10 ml Chick embryo extract, 2 ml Penicillin/Streptomycin, and 2 mg 20-hydroxyecdysone (prepared in ethanol prior to addition) to a final volume of 100 ml and sterile filtered (0.2 μm filter)). Cells were maintained in a high humidity incubator at 29° C. until testing.
# Cells were rinsed in standard physiological saline having the following composition (mM): NaCl 190; CaCl2 9; KCl 3.1; probenicid 1; Tris buffer 10; pH 7.2. Cells were then bathed in standard physiological saline containing the calcium sensitive fluoroprobe Fluo4 AM (2 μM) and Pluronic F127 (0.002%) for 45 min. Cells were then rinsed in standard physiological saline for at least 15 min prior to testing. Within the hour prior to testing, standard physiological saline was replaced with standard physiological saline containing the organic cation channel blocker pimozide (10 μM), to inhibit influx of external calcium through voltage-gated calcium channels. The 96-well plate was placed on a PriorTm motorized stage mounted onto a Nikon Diaphot microscope and imaged using a 20× Fluor objective (NA 0.75). Individual wells from the 96-well plate were sequentially excited with light at 495 nm, and the emitted fluorescence at 530 nm was detected using a Hamamatsu ORCA ER digital camera with 2 pixel binning (image size 672×512 pixels).
# Acquisition control, image processing and image analysis were conducted using Universal Imaging Corporation's MetaMorph™ imaging software (Universal Imaging, West Chester, Pa.). A series of 3 “control” images were acquired for each well. Experimental compounds were added followed by acquisition of 4 “experimental” images for each well. […]
# [3] = biological target: T1, recombinant Drosophila melanogaster ryanodine receptor (expressed in Sf9 cells) (Drosophila melanogaster, UniProt Q24498); format: cell-based; conditions: for Calcium Release (D. melanogaster): known ryanodine receptor agents, transiently or stably expressed in Sf9 cells, result in words
# T1 construct: His tag + attB1 + Lox footprint (N-terminal vector extension; present only if the Cre-Lox vector was the one used) (N); expressed in transfected cells
# Source text: (§1) Several drops of a suspension of recombinant Spodoptera frugiperda cell line, Sf9, transiently expressing insect ryanodine receptors were placed on a poly-L-lysine-coated coverslip and allowed to attach. Cells were then rinsed in physiological saline having the following composition (mM): NaCl 130; KCl 5.4; MgCl2 1.2; CaCl2 1.0; NaHCO3 4.2; NaH2P04 7.3; Glucose 10; Sucrose 63; MES 20; pH 6.3. Cells were then bathed in physiological saline containing the calcium sensitive fluoroprobe, Fura-2 AM (2 μM), and Pluronic F127 (0.002%) for 30 min. Cells were rinsed in standard physiololgical saline for at least 15 min prior to testing. Testing was conducted in standard physiological saline, as the cell lines are devoid of functional voltage-gated calcium channels.
# Cell-attached coverslips were placed in a sealed chamber with physiological saline continuously perfused across the cells using a peristaltic pump. Test compounds solubilized in physiological saline were applied by switching the perfusate source.
# (§2) For studies involving the stable recombinant Spodoptera frugiperda cell line, Sf9, (other cell lines could also be used such as Sf21, S2, etc) expressing an insect ryanodine receptor from Drosophila melanogaster, or Heliothis virescens (alternatively receptors from other species such as Myzus persicae, Peregrinus maidis, Aphis gossypii, etc) were grown in T75 (or other appropriate sized) flasks in supplemented Grace's insect medium. Cells were maintained in an incubator at 22° C. until testing. Cells were suspension-loaded with the calcium sensitive fluoroprobe, Fura-2 AM (1-2 μM) and Pluronic F127 (0.002%) in culture medium for 30 minutes under agitation. Cells were then centrifuged and the pellet resuspended in physiological saline having the following composition (mM): NaCl 130; KCl 5.4; MgCl2 1.2; CaCl2 1.0; NaHCO3 4.2; NaH2P04 7.3; Glucose 10; Sucrose 63; MES 20; pH 6.3 at approximately 150,000-200,000 cells per well (96-well plate). After a 30 minute equilibration period the cell plate was tested using a Molecular Devices' FlexStation™ system with dual wavelength excitation (340 and 380 nm) and fluorescence emission measured at 510 nm. Test and control samples were added using integrated fluidics and the intracellular calcium monitored over a 2 minute period.
# [4] = system: recombinant Heliothis virescens ryanodine receptor (expressed in Sf9 cells); assay: Calcium release assay in Sf9 cells expressing recombinant Heliothis virescens ryanodine receptor; format: cell-based; conditions: caffeine 10 mM; Compound 14 1 μM; Fura-2 AM imaging
# Source text: as §1
# (§3) Imaging studies were conducted using a Nikon Diaphot microscope with a 40× oil immersion objective (NA 1.3) Image acquisition and processing was performed using the MetaFluor™ imaging system from Universal Imaging Corporation (West Chester, Pa.) Calcium calibration was carried out using the Grynkiewicz equation with a dissociation constant (Kd) of 145 nM for Fura-2 (Grynkiewicz et al., 1985). Cell-attached coverslips were placed in a sealed chamber with physiological saline continuously perfused across the cells using a peristaltic pump. Test compounds solubilized in physiological saline were applied by switching the perfusate source.
# as §2
# [5] = system: control Sf9 cells without DNA / wild type Sf9; assay: Calcium response in control or wild-type Sf9 cells lacking recombinant receptor; format: cell-based, Spodoptera frugiperda; conditions: caffeine 10 mM; Compound 16 10 and 100 nM
# Source text: as §1, §3, §2
# cockroach ryanodine receptor (roach femoral muscle membranes), sequence (Z9HFG3YSF4 1-5141): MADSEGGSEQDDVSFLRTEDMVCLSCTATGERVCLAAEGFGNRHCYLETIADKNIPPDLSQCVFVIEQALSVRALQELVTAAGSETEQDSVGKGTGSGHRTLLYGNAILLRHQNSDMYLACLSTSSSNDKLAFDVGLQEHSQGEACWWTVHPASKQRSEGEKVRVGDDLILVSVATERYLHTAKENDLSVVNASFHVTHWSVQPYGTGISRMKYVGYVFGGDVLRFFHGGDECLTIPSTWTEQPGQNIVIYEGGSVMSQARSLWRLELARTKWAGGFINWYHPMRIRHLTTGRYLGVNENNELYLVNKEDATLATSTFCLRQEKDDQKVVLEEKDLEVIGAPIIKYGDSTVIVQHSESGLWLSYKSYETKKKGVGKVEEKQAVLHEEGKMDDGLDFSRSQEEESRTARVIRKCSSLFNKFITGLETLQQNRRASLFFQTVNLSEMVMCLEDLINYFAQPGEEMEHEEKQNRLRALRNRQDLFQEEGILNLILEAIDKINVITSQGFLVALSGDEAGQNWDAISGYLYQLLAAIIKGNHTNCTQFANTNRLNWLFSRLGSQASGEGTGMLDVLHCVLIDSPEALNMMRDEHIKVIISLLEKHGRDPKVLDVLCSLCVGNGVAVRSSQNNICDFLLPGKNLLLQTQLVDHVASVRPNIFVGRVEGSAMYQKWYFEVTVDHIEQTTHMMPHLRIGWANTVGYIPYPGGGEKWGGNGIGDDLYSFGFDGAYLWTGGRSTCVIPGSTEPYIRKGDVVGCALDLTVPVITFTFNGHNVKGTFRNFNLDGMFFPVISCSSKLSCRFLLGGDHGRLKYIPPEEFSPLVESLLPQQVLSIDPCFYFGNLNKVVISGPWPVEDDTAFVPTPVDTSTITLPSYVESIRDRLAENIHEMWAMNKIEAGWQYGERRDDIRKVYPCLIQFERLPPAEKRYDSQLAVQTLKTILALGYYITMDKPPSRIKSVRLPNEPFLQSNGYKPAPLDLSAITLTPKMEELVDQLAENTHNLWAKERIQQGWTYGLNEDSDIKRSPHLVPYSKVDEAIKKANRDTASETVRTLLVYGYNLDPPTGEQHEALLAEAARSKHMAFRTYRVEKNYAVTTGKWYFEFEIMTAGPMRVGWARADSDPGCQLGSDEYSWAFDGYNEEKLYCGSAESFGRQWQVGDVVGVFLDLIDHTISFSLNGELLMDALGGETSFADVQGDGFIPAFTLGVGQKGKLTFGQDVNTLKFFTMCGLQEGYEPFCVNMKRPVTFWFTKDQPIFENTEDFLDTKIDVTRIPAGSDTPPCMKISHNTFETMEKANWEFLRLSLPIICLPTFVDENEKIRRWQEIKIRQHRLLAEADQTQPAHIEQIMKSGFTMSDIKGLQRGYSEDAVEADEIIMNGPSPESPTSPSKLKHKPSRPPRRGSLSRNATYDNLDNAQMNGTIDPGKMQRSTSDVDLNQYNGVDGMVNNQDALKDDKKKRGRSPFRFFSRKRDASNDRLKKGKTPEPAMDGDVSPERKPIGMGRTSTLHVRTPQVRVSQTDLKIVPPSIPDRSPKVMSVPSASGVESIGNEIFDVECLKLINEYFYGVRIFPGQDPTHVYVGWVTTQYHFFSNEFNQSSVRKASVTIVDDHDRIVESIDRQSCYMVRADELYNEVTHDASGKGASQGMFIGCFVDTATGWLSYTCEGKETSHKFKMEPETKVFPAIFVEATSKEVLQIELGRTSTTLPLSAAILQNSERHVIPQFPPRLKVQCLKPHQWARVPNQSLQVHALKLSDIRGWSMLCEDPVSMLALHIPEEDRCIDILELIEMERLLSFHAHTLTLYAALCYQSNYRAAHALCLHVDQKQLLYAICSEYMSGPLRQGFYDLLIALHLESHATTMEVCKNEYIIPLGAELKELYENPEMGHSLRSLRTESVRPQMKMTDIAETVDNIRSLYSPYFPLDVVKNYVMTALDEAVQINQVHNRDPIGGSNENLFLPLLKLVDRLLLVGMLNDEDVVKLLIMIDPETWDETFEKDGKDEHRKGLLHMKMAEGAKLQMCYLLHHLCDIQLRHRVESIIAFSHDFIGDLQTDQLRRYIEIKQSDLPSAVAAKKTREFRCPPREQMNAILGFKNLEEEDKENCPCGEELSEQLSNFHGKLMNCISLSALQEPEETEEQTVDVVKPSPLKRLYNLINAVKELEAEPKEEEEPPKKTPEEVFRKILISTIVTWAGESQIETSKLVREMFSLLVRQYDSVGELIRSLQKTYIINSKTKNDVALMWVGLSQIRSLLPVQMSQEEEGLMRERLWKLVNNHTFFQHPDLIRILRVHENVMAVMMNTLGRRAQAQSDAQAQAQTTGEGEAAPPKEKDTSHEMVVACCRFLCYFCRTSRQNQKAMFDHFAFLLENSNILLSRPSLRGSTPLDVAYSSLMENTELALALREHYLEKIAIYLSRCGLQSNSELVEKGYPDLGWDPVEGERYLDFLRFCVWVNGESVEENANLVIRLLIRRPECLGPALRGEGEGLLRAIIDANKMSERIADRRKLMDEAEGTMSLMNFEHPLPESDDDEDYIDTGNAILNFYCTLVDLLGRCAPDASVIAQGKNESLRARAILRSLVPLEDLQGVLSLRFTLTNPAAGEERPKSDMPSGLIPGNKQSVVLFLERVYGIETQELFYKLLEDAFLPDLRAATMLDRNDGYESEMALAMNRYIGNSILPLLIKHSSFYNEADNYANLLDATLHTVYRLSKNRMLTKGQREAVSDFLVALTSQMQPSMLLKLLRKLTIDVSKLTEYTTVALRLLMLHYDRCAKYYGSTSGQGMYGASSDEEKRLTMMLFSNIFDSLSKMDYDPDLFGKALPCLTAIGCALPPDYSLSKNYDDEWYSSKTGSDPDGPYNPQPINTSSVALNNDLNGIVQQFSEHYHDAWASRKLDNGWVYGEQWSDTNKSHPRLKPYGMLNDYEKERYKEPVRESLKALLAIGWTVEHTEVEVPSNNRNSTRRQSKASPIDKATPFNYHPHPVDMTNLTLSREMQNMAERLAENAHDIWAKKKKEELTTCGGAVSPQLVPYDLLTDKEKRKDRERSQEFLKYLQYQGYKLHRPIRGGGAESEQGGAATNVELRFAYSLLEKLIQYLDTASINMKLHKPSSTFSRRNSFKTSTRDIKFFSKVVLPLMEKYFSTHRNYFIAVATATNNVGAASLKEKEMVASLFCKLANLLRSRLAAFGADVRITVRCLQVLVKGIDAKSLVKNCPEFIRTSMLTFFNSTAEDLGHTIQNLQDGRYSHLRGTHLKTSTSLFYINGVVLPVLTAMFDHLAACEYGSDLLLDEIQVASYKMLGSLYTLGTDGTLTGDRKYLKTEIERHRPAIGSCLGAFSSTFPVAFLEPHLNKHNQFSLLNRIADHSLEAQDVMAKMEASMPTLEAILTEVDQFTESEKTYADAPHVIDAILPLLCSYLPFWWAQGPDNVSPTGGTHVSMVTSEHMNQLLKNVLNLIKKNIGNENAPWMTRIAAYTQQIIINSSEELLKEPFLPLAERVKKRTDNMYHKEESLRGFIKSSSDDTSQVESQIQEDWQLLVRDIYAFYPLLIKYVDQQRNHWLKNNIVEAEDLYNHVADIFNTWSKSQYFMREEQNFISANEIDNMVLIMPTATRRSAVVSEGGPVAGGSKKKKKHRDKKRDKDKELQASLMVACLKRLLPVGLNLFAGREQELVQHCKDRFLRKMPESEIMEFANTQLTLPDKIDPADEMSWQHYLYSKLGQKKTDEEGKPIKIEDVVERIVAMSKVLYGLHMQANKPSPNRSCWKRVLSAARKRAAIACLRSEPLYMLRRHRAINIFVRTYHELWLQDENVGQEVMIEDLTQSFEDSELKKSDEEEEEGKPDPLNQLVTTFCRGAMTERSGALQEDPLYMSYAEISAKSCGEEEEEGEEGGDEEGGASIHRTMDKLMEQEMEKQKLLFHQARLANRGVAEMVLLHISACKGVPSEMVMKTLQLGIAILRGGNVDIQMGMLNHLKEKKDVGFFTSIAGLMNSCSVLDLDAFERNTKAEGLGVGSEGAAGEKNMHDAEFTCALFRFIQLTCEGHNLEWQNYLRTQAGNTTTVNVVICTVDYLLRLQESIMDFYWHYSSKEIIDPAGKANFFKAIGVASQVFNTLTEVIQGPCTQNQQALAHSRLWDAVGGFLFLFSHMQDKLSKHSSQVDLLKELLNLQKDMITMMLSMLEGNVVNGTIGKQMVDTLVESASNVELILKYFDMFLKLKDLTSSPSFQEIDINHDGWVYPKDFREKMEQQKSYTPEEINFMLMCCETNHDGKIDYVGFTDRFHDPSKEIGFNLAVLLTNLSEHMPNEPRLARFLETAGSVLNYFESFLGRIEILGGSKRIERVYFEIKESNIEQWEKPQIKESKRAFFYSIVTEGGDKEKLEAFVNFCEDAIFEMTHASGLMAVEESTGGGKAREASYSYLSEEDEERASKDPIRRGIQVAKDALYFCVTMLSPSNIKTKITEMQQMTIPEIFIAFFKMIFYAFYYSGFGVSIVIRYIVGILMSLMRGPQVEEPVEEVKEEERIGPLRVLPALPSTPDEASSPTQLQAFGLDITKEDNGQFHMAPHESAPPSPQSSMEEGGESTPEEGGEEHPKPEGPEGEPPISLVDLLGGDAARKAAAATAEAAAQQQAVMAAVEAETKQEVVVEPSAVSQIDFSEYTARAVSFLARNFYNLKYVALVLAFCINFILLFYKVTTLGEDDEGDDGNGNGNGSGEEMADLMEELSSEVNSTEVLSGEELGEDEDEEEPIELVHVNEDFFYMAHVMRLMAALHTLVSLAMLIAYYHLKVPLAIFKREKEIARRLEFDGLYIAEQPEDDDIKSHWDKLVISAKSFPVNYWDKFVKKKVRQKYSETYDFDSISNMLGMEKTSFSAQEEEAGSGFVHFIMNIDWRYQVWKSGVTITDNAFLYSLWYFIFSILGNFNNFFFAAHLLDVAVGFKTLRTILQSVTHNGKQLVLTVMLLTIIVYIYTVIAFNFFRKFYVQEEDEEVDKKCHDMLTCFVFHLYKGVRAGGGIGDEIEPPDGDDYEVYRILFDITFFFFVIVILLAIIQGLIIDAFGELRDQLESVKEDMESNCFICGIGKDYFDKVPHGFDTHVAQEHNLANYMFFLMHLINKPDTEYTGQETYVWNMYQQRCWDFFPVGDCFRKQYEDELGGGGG
SMILES,IC50 [1] [nM],Calcium Release Threshold (nM) P. americana [2] [nM],also measured
Cc1cccc(C(=O)NC(C)C)c1NC(=O)c1cc(Cl)nn1-c1ncccc1Cl [Cpd 8],< 300,<300,
CNC(=O)c1cc(Cl)cc(C)c1NC(=O)c1cc(C(F)(F)F)nn1-c1ncccc1Cl [Cpd 11],< 300,<300,Calcium Release Threshold (nM) D. melanogaster [3]: <300 nM
CNC(=O)c1cc(Cl)cc(C)c1NC(=O)c1cc(Br)nn1-c1ncccc1Cl [Cpd 14],< 300,<300,"calcium responses, Sf9 stably expressing H. virescens ryanodine receptor (FIG. 5) [4]: calcium responses elicited; Calcium Release Threshold (nM) D. melanogaster [3]: <300 nM"
CC(C)[C@@]1(O)[C@@H](OC(=O)c2ccc[nH]2)[C@@]2(O)[C@@]3(C)C[C@]4(O)O[C@@]5([C@H](O)[C@@H](C)CC[C@]35O)[C@@]2(O)[C@@]14C [Ryanodine],,,Radioligand Displacement (P. americana) [1]: Inactive; Calcium Release (P. americana) [2]: Antagonist; Calcium Release (D. melanogaster) [3]: Antagonist
Cc1cc(Cl)cc(C(=O)NC(C)C)c1NC(=O)c1cc(Br)nn1-c1ncccc1Cl [Cpd 13],< 300,,
"Oc1c(Br)cc2[nH]c3cnccc3c2c1Br [Bromoeudistomin D, reference compound]",,,Calcium Release (P. americana) [2]: Agonist
CNC(=O)c1cc(Br)cc(C)c1NC(=O)c1cc(C(F)(F)F)nn1-c1ncccc1Cl [Cpd 15],< 300,<300,
"COc1cccc2c1C(=O)c1c(O)c3c(c(O)c1C2=O)C[C@@](O)(C(=O)CO)C[C@@H]3O[C@H]1C[C@H](N)[C@H](O)[C@H](C)O1.Cl [Doxorubicin, reference compound]",,,Calcium Release (P. americana) [2]: Inactive
"N.N.N.N.N.N.N.N.N.N.N.N.N.N.[Cl-].[Cl-].[Cl-].[Cl-].[Cl-].[Cl-].[O-2].[O-2].[Ru+3].[Ru+3].[Ru+4] [Ruthenium Red, reference compound]",,,Radioligand Displacement (P. americana) [1]: Displacer; Calcium Release (P. americana) [2]: Inactive; Calcium Release (D. melanogaster) [3]: Antagonist
CNC(=O)c1cccc(C)c1NC(=O)c1cc(C(F)(F)F)nn1-c1ncccc1Cl [Cpd 6],< 300,<300,
"[3H]c1cc(C)c(NC(=O)c2cc(C(F)(F)F)nn2-c2ccccc2F)c(C(=O)NC(C)C)c1 [Cpd 1, 1-(2-Fluorophenyl)-N-[2-methyl-4-tritio-6-[[(1-methylethyl)amino]carbonyl]phenyl]-3-(trifluoromethyl)-1H-pyrazole-5-carboxamide]",< 300,<1000,Calcium Release Threshold (nM) D. melanogaster [3]: <300 nM
Cc1cc(Cl)cc(C(=O)NC(C)C)c1NC(=O)c1cc(C(F)(F)F)nn1-c1ncccc1Cl [Cpd 10],< 300,<300,
CCNC(=O)c1cc(Br)cc(Br)c1NC(=O)c1cc(C(F)(F)F)nn1-c1ncccc1Cl [Cpd 18],< 300,,
Cc1cc(Br)cc(C(=O)NC(C)C)c1NC(=O)c1cc(Br)nn1-c1ncccc1Cl [Cpd 12],< 300,<300,
Cc1cccc(C(=O)NC(C)C)c1NC(=O)c1cc(Br)nn1-c1ncccc1Cl [Cpd 7],< 300,<300,
Cc1cc(Cl)cc(C(=O)NC(C)C)c1NC(=O)c1cc(Cl)nn1-c1ncccc1Cl [Cpd 16],< 300,<300,"Calcium Release Threshold (nM) D. melanogaster [3]: <300 nM; calcium responses, Sf9 transiently expressing D. melanogaster ryanodine receptor (FIG. 3) ([3]; 96 hr post-transfection, caffeine 10 mM, Compound 16 10 and 100 nM): calcium responses elicited; calcium responses in control cells without DNA (FIG. 3) [5]: No significant calcium responses"
Cc1cc(Br)cc(C(=O)NC(C)C)c1NC(=O)c1cc(C(F)(F)F)nn1-c1ncccc1Cl [Cpd 9],< 300,<300,
Cc1cccc(C(=O)NC(C)C)c1NC(=O)c1cc(C(F)(F)F)nn1-c1ccccc1Cl [Cpd 2],< 300,<300,Calcium Release Threshold (nM) D. melanogaster [3]: <300 nM
CNC(=O)c1cc(Cl)cc(C)c1NC(=O)c1cc(Cl)nn1-c1ncccc1Cl [Cpd 17],< 300,<300,
Cc1cc(Br)cc(C(=O)NCC(C)C)c1NC(=O)c1cc(C(F)(F)F)nn1-c1ccccc1Cl [Cpd 3],< 300,,

# — patent US7498408B2, “Ryanodine receptor polypeptides” (E. I. du Pont de Nemours and Company, priority 2002, dated 2009)
